# Reference: patent US8299065B2, “Antibacterial condensed thiazoles” (Biota Europe Ltd., priority 2007, dated 2012)
# What was measured:
# [1] = system: Enterococcus faecalis ATCC 29212; experiment: MIC testing against Enterococcus faecalis ATCC 29212; format: cell-based; settings: for MIC: ATCC29212, read-out: MICs against Enterococcus faecalis, Activity
# Experimental: (§1) Minimum Inhibitory Concentration (MIC) Testing Compounds of this invention were tested for antimicrobial activity by susceptibility testing in liquid or on solid media. MICs for compounds against each strain were determined by the broth microdilution or agar dilution method according to the guidelines of the Clinical Laboratories and Standards Institute, formerly the National Committee for Clinical Laboratory Standards (Clinical Laboratories and Standards Institute. Methods for Dilution Antimicrobial Susceptibility Tests for Bacteria That Grow Aerobically; Approved Standard—Seventh Edition. Document M7-A7. CLSI, Wayne, Pa., 2006; Clinical Laboratories and Standards Institute. Methods for Antimicrobial Susceptibility Testing of Anaerobic Bacteria; Approved Standard—Sixth Edition. Document M11-A6. CLSI, Wayne, Pa., 2004).
# [2] = system: Staphylococcus aureus ATCC 29213; experiment: MIC testing, various bacteria; format: cell-based; settings: ATCC29213
# Experimental: (§2) Minimum Inhibitory Concentration (MIC) Testing
# as §1, with “Compounds” for “Minimum Inhibitory Concentration (MIC) Testing Compounds”
# (§3) Some of the Example compounds were also tested for activity against other bacterial species.
# [3] = system: Staphylococcus epidermidis ATCC 12228; experiment: MIC testing, various bacteria; format: cell-based; settings: ATCC12228
# Experimental: as §2
# as §1, with “Compounds” for “Minimum Inhibitory Concentration (MIC) Testing Compounds”
# as §3
# [4] = system: Streptococcus pneumoniae ATCC 49619; experiment: MIC testing, various bacteria; format: cell-based; settings: ATCC49619
# Experimental: as §2
# as §1, with “Compounds” for “Minimum Inhibitory Concentration (MIC) Testing Compounds”
# as §3
# [5] = system: Streptococcus pyogenes ATCC 51339; experiment: MIC testing, various bacteria; format: cell-based; settings: ATCC51339
# Experimental: as §2
# as §1, with “Compounds” for “Minimum Inhibitory Concentration (MIC) Testing Compounds”
# as §3
# [6] = system: Moraxella catarrhalis ATCC 25240; experiment: MIC testing, various bacteria; format: cell-based; settings: ATCC25240
# Experimental: as §2
# as §1, with “Compounds” for “Minimum Inhibitory Concentration (MIC) Testing Compounds”
# as §3
# [7] = system: Haemophilus influenzae ATCC 49247; experiment: MIC testing, various bacteria; format: cell-based; settings: ATCC49247
# Experimental: as §2
# as §1, with “Compounds” for “Minimum Inhibitory Concentration (MIC) Testing Compounds”
# as §3
# [8] = system: Enterococcus faecium (VRE) ATCC 700221; experiment: MIC testing, various bacteria; format: cell-based
# Experimental: as §2
# as §1, with “Compounds” for “Minimum Inhibitory Concentration (MIC) Testing Compounds”
# as §3
# [9] = system: Streptococcus agalactiae ATCC 13813; experiment: MIC testing, various bacteria; format: cell-based; settings: ATCC13813
# Experimental: as §2
# as §1, with “Compounds” for “Minimum Inhibitory Concentration (MIC) Testing Compounds”
# as §3
# [10] = system: Enterococcus faecalis (VRE) ATCC 51299; experiment: MIC testing, various bacteria; format: cell-based
# Experimental: as §2
# as §1, with “Compounds” for “Minimum Inhibitory Concentration (MIC) Testing Compounds”
# as §3
# [11] = system: Streptococcus mutans ATCC 35668; experiment: MIC testing, various bacteria; format: cell-based; settings: ATCC35668
# Experimental: as §2
# as §1, with “Compounds” for “Minimum Inhibitory Concentration (MIC) Testing Compounds”
# as §3
# [12] = system: Staphylococcus haemolyticus ATCC 29970; experiment: MIC testing, various bacteria; format: cell-based; settings: ATCC29970
# Experimental: as §2
# as §1, with “Compounds” for “Minimum Inhibitory Concentration (MIC) Testing Compounds”
# as §3
# [13] = system: Staphylococcus epidermidis clinical isolates; experiment: MIC testing, clinical isolates; format: cell-based; settings: 10 clinical isolates
# Experimental: as §1, with “2004). Some of the Example compounds were also tested for activity against clinical isolates of various bacterial species.” for “2004).”
# [14] = system: Enterococcus faecium clinical isolates; experiment: MIC testing, clinical isolates; format: cell-based; settings: 10 clinical isolates
# Experimental: as §1, with “2004). Some of the Example compounds were also tested for activity against clinical isolates of various bacterial species.” for “2004).”
# [15] = system: Streptococcus pyogenes clinical isolates; experiment: MIC testing, clinical isolates; format: cell-based; settings: 10 clinical isolates
# Experimental: as §1, with “2004). Some of the Example compounds were also tested for activity against clinical isolates of various bacterial species.” for “2004).”
# [16] = system: Enterococcus faecalis clinical isolates; experiment: MIC testing, clinical isolates; format: cell-based; settings: 10 clinical isolates
# Experimental: as §1, with “2004). Some of the Example compounds were also tested for activity against clinical isolates of various bacterial species.” for “2004).”
# [17] = system: Streptococcus pneumoniae clinical isolates; experiment: MIC testing, clinical isolates; format: cell-based; settings: 10 clinical isolates
# Experimental: as §1, with “2004). Some of the Example compounds were also tested for activity against clinical isolates of various bacterial species.” for “2004).”
# [18] = system: Staphylococus aureus clinical isolates; experiment: MIC testing, clinical isolates; format: cell-based; settings: 10 clinical isolates
# Experimental: as §1, with “2004). Some of the Example compounds were also tested for activity against clinical isolates of various bacterial species.” for “2004).”
# [19] = system: Propionibacterium acnes clinical isolates; experiment: MIC testing, clinical isolates; format: cell-based; settings: 5 clinical isolates
# Experimental: as §1, with “2004). Some of the Example compounds were also tested for activity against clinical isolates of various bacterial species.” for “2004).”
compound,measurement,setting,value
"CCNC(=O)Nc1nc2cc(-c3ccn(C)c(=O)c3)ccc2s1 [Example 3, 1-Ethyl-3-(5-(1-methyl-2-oxo-1,2-dihydro-pyridin-4-yl)-benzothiazol-2-yl)urea]",MIC,[1],0.25 to 1 µg/mL
same,MIC,[2],0.25 to 1 µg/mL
same,MIC,[3],0.25 to 1 µg/mL
same,MIC,[4],< 0.25 µg/mL
same,MIC,[5],0.25 to 1 µg/mL
same,MIC,[6],0.25 to 1 µg/mL
same,MIC,[7],2 to 16 µg/mL
same,MIC,[8],2 to 16 µg/mL
same,MIC,[9],0.25 to 1 µg/mL
same,MIC,[10],2 to 16 µg/mL
same,MIC,[11],0.25 to 1 µg/mL
same,MIC,[12],0.25 to 1 µg/mL
"CCNC(=O)Nc1nc2cc(-c3cccnc3)c(F)cc2s1 [Example 4, 1-Ethyl-3-(6-fluoro-5-pyridin-3-yl-benzothiazol-2-yl)-urea]",MIC,[1],0.25 to 1 µg/mL
same,melting point,,199.1 °C
"CCNC(=O)Nc1nc2cc(-c3cc(C)n(Cc4cccnc4)c(=O)c3)c(F)cc2s1 [Example 49, 1-ethyl-3-(6-fluoro-5-(6-methyl-2-oxo-1-(pyridin-3-ylmethyl)-1,2-dihydropyridin-4-yl)benzo[d]thiazol-2-yl)urea]",MIC,[1],0.25 to 1 µg/mL
same,MIC90,[13],0.03 µg/mL
same,MIC range,[13],0.008 to 0.06 µg/mL
same,MIC90,[14],0.5 µg/mL
same,MIC range,[14],0.25 to 0.5 µg/mL
same,MIC90,[15],0.25 µg/mL
same,MIC range,[15],0.12 to 0.5 µg/mL
same,MIC90,[16],0.25 µg/mL
same,MIC range,[16],0.06 to 0.5 µg/mL
same,MIC90,[17],0.015 µg/mL
same,MIC range,[17],0.008 to 0.03 µg/mL
same,MIC90,[18],0.06 µg/mL
same,MIC range,[18],0.03 to 0.12 µg/mL
same,MIC range,[19],1 µg/mL
same,MIC90,[19]; Cutibacterium acnes,1 µg/mL
"CCNC(=O)Nc1nc2cc(-c3ccc(NC(C)=O)nc3)cnc2s1 [Example 76, N-(5-(2-(3-ethylureido)thiazolo[5,4-b]pyridin-6-yl)pyridin-2-yl)acetamide]",MIC,[1],2 to 16 µg/mL
"CCNC(=O)Nc1nc2cc(-c3cc(C)oc(=O)c3)cnc2s1 [Example 77, 1-ethyl-3-(6-(6-methyl-2-oxo-2H-pyran-4-yl)thiazolo[5,4-b]pyridin-2-yl)urea]",MIC,[1],2 to 16 µg/mL
"CCNC(=O)Nc1nc2cc(-c3cc(C)n(C(C)c4ccc(C)nc4)c(=O)c3)c(F)cc2s1 (stereo not shown) [Example 78, 1-ethyl-3-(6-fluoro-5-{6-methyl-1-[1-(6-methyl-pyridin-3-yl)-ethyl]-2-oxo-1,2-dihydro-pyridin-4-yl}-benzothiazol-2-yl)-urea]",MIC,[1],0.25 to 1 µg/mL
"CCNC(=O)Nc1nc2cc(-c3ccn(Cc4ncccc4OC)c(=O)c3)c(F)cc2s1 [Example 79, 1-Ethyl-3-{6-fluoro-5-[1-(3-methoxy-pyridin-2-ylmethyl)-2-oxo-1,2-dihydro-pyridin-4-yl]-benzothiazol-2-yl}-urea]",MIC,[1],< 0.25 µg/mL
"tert-butyl 3-((4-(2-(3-ethylureido)-6-fluorobenzo[d]thiazol-5-yl)-5-yl)-2,2′-dioxo-2H-1,4′-bipyridin-1′(2′H)-yl)methyl)piperidine-1-carboxylate [Example 64]","MICs against Enterococcus faecalis, Activity",[1],B (MICs of 0.25-1 μg/ml)
